Measured values published in patent US6569878B1, “Substituted 4-amino-thiazol-2-yl compounds as cyclin-dependent kinase inhibitors” (Agouron Pharmaceuticals Inc., priority 1997, dated 2003).
Structures can show the parent of a compound that is named as a salt.

Columns and labels:
[1] = target: T1, complex of human CDK4 and cyclin D3 (Homo sapiens, UniProt P11802); assay: Inhibition of CDK4/cyclin D retinoblastoma kinase activity (D-type cyclin is D3); type: biochemical; conditions: superscript a: D-type cyclin is D3; apparent Ki; read-out: Ki CDK 4/D
T1 construct: made in house; host or cells: insect cells, co-infected with baculovirus
T1 sequence (P11802 whole entry): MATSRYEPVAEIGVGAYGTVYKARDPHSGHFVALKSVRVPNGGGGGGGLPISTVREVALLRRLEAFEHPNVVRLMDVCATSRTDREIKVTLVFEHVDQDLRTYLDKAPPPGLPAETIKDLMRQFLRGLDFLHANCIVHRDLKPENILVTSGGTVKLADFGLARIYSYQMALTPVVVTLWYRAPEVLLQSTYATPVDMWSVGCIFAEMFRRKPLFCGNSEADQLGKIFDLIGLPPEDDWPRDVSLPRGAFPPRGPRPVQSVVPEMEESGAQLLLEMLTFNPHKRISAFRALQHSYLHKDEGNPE
T1 sequence (P30281 whole entry partner): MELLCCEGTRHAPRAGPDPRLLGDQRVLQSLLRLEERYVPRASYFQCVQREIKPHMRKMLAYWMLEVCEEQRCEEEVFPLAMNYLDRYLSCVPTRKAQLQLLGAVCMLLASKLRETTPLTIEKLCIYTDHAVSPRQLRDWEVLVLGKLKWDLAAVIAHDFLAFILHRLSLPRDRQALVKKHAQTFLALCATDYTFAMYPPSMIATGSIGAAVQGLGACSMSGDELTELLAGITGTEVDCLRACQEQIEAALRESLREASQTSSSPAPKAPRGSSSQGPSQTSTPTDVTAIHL
Method in brief: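 Radiometric assay: [32P]- or [33P]ATP phosphate incorporation into Rb substrate at 30°C for 20 min, stopped with EDTA, filter-captured and phosphorimaged.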

CDK2/cyclin A = target: T2, CDK2/cyclin A (Homo sapiens, UniProt P24941); assay: Inhibition of CDK2/cyclin A retinoblastoma kinase activity; type: biochemical; conditions: read-out: Ki CDK 2/A
T2 construct: made in house; host or cells: CDK2: insect cells (baculovirus); cyclin A: E. coli, then limited proteolysis
Method in brief: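 Baculovirus-expressed CDK2 with excess proteolyzed cyclin A (or purified complex), 150 nM or 5 nM, phosphorylating an Rb fragment with 25 μM [32/33P]ATP, pH 7.4, 30° C, 20 min. Filter-captured radioactivity by phosphorimager; apparent Ki from fits to competitive or tight-binding competitive inhibition using measured ATP Km.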

[2] = target: T3, human CDK1 (cdc2) and cyclin B (Homo sapiens, UniProt P06493); assay: Inhibition of CDK1(cdc2)/cyclin B histone H1 kinase activity; type: biochemical; conditions: read-out: Ki CDK 1/B
T3 construct: purchased New England Biolabs (Beverly Mass.)
T3 sequence (P06493 whole entry): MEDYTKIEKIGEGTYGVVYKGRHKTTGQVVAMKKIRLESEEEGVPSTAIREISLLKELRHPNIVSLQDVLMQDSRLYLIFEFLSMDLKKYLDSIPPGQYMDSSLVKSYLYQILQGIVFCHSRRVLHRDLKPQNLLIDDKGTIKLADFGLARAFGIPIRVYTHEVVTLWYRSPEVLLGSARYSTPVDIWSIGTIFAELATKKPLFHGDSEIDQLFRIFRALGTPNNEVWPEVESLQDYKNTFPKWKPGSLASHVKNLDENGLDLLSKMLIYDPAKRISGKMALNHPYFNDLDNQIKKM
T3 sequence (P14635 whole entry partner): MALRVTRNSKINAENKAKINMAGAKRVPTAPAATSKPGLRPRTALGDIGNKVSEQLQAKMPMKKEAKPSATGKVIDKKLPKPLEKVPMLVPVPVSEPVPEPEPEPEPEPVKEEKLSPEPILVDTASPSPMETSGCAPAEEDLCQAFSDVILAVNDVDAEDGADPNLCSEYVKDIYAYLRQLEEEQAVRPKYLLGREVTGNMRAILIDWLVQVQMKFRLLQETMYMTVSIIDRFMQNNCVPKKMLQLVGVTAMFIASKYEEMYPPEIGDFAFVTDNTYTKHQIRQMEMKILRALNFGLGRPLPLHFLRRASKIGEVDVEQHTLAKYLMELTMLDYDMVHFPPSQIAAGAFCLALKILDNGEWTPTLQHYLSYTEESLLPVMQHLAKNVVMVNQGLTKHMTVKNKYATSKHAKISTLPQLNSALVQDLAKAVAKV
Method in brief: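 CDK1/cyclin B (commercial, or CDK1/GST-cyclin B1 from co-infected insect cells) phosphorylated histone H1 with 25 μM [32/33P]ATP at pH 7.4, 30° C for 20 min, 2% DMSO. Product captured on phosphocellulose and read by phosphorimager; apparent Ki from competitive or tight-binding fits, with Km for ATP determined.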

HCT116 = assay: Inhibition of cell growth, MTT assay, HCT116; type: cell-based, human; conditions: Homo sapiens, HCT-116
Method in brief: (§1)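 Cells rested 4 h after plating, then exposed to graded compound concentrations in 0.5% (v/v) DMSO for four to six days (cell-type dependent) at 37° C, 5% CO2. Viability was read by MTT (0.2 mg/mL final, 4 h at 37° C), with DMSO-solubilized formazan measured at 540 nm.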

U2-OS = assay: Inhibition of cell growth, MTT assay, U2-OS; type: cell-based; conditions: Homo sapiens, U2OS
Method in brief: as §1

Saos-2 = assay: Inhibition of cell growth, MTT assay, Saos-2; type: cell-based; conditions: Homo sapiens; Saos-2, MTT assay
Method in brief: as §1

[3] = system: phosphorylation of the retinoblastoma protein (pRb) in HCT-116 cells; assay: pRb immunoblotting (anti-Rb antibody); type: cell-based, human; conditions: five micromolar of each compound for 12 hours, western blot
Protocol: (§2) The ability of compounds to inhibit phosphorylation of the retinoblastoma protein (pRb) was assessed by western blot analysis. An anti-Rb antibody was used to measure the conversion of hyper-phosphorylated pRb to hypo-phosphorylated pRb.
(§3) Human colon tumor cells (HCT-116 cells; 5×10^6) were plated on […] dishes and allowed to grow overnight. Five micromolar of each compound was added for 12 hours. The cells were then collected and centrifuged. The cell pellets were lysed by the addition of 100 μL lysis buffer (50 mM HEPES (pH 7.0), 250 mM NaCl, 5 mM ethylenediaminetetraacetic acid, 0.1% Nonidet P-40, 1 mM dithiothreitol, 2 mM sodium pyrophosphate, 1 mM sodium orthovanadate, 1 μg/ml aprotonin, 1 μg/ml leupeptin, 50 μg/ml phenylmethylsulfonyl fluoride). Forty micrograms of protein were separated by sodium dodecyl sulfate-polyacrylamide gel electrophoresis (SDS-PAGE) on a 6% gel. The proteins were transferred to nitrocellulose and blocked with 5% blocking buffer in Tris-buffered saline overnight. The anti-Rb antibody (Pharmingen), the anti-phospho-Rb (Ser 780) antibody (MBL), and secondary antibody were incubated for 1 hour at room temperature followed by three wash steps in 0.01% Tween-20 in Tris-buffered saline. The Rb protein was detected using chemiluminescence according to the manufacturer (Amersham).

[4] = system: pRb phosphorylation at serine 780 in HCT-116 cells; assay: pRb immunoblotting (anti-phospho-Rb (ser780) antibody); type: cell-based, human; conditions: five micromolar of each compound for 12 hours, western blot, anti-phospho-Rb (Ser 780) antibody
Protocol: as §2, §3

COLO-205 = assay: Inhibition of cell growth, MTT assay, COLO-205; type: cell-based; conditions: Homo sapiens; COLO-205, MTT assay
Protocol: (§4) The water-insoluble purple formazan product was then detected spectrophotometrically. […] Plates were incubated for four hours before addition of inhibitor compounds. Different concentrations of inhibitor compounds were added in 0.5% (v/v) dimethylsulfoxide (15 μL/well), and cells were incubated at 37° C. (5% CO2) for four to six days (depending on cell type). At the end of the incubation, MTT was added to a final concentration of 0.2 mg/mL, and cells were incubated for 4 hours more at 37° C. After centrifugation of the plates and removal of medium, the absorbance of the formazan (solubilized in dimethylsulfoxide) was measured at 540 nm.

M14 melanoma = assay: Inhibition of cell growth, MTT assay, M14 melanoma; type: cell-based; conditions: Homo sapiens
Protocol: as §4

RXF-393 = assay: Inhibition of cell growth, MTT assay, RXF-393; type: cell-based; conditions: Homo sapiens; RXF-393, MTT assay
Protocol: as §4

MCF-7 = assay: Inhibition of cell growth, MTT assay, MCF-7; type: cell-based; conditions: MCF-7, MTT assay; for IC50 / IC90: Homo sapiens, MCF7; for % inhibition of growth in parentheses after >25: concentration not given
Protocol: as §4

MDA-MB-468 = assay: Inhibition of cell growth, MTT assay, MDA-MB-468; type: cell-based; conditions: Homo sapiens; MDA-MB-468, MTT assay
Protocol: as §4

Row | Ki [1] [nM] | Ki (CDK2/cyclin A) [nM] | Ki [2] [nM] | IC50 (HCT116) [nM] | IC90 (HCT116) [nM] | IC50 (U2-OS) [nM] | IC90 (U2-OS) [nM] | IC50 (COLO-205) [nM] | IC90 (COLO-205) [nM] | IC50 (M14 melanoma) [nM] | IC90 (M14 melanoma) [nM] | IC50 (MCF-7) [nM] | IC90 (MCF-7) [nM] | IC50 (MDA-MB-468) [nM] | Structure (SMILES) | IC50 (Saos-2) [nM] | IC90 (Saos-2) [nM] | Inhibits pRb phosphorylation [3] | Inhibits pRb (ser 780) phosphorylation [4] | IC50 (RXF-393) [nM] | IC90 (RXF-393) [nM] | other results
1 | 40.7 | 350 | 200 | 1000 | 2600 | 1000 | 20000 |  |  |  |  |  |  |  | COc1ccc(Nc2nc(N)c(C(=O)c3ccccc3C#N)s2)cc1 [F, 2-[4-Amino-2-(4-methoxy-phenylamino)-thiazole-5-carbonyl]-benzonitrile] | 1000 | 1600 | − | − |  |  | 
2 | 13 | 5.7 | 2.2 | 250 | 560 | 1700 | 2800 | 240 | 580 | 710 | 2200 | 3900 | 13000 | 220 | Nc1nc(Nc2ccc(S(N)(=O)=O)cc2)sc1C(=O)c1c(F)cccc1F [C(85), 4-[4-Amino-5-(2,6-difluoro-benzoyl)-thiazol-2-ylamino]-benzenesulfonamide] | 280 | 670 | + | + | 1200 | 3000 | IC90 (MDA-MB-468): 590 nM
3 | 8.2 | 370 | 681 | 580 | 1400 | 850 | 1500 | 200 | 600 | 2400 | 9000 |  |  |  | Cc1ccsc1C(=O)c1sc(Nc2ccc(N3CCNCC3)cc2)nc1N [H(1), [4-Amino-2-(4-piperazin-1-yl-phenylamino)-thiazol-5-yl]-(3-methyl-thiophen-2-yl)-methanone Trihydrochloride] | 730 | 1400 | + | + | 460 | 880 | 
4 | 25.5 | 5.6 | 29 | 610 | 1600 | 2000 | 3000 |  |  |  |  | 3000 | > 25000 | 480 | Cc1cc(C(=O)c2sc(Nc3ccc(S(N)(=O)=O)cc3)nc2N)c(C)s1 [C(50), 4-[4-Amino-5-(2,5-dimethyl-thiophene-3-carbonyl)-thiazol-2-ylamino]-benzenesulfonamide] | 1300 | 2800 | + | + |  |  | % inhibition of growth in parentheses after >25 (MCF-7): (88%); IC90 (MDA-MB-468): 1500 nM
5 | 6.4 | 135 | 405 | 300 | 730 | 1700 | 2800 | 900 | 2700 | 650 | 2000 | 480 | 1700 | 340 | Nc1nc(Nc2ccc(N3CCNCC3)cc2)sc1C(=O)c1c(F)cccc1F [J(2), [4-Amino-2-(4-piperazin-1-yl-phenylamino)-thiazol-5-yl]-(2,6-difluoro-phenyl)-methanone] | 580 | 1300 | + | + | 550 | 1100 | IC90 (MDA-MB-468): 700 nM
6 | 14 | 11.1 | 15 |  | 700 | 1000 | 1500 | 290 | 600 | 600 | 1800 | 2600 | > 25000 | 260 | Cc1ccsc1C(=O)c1sc(Nc2ccc(S(N)(=O)=O)cc2)nc1N [C(48), 4-[4-Amino-5-(3-methyl-thiophene-2-carbonyl)-thiazol-2-ylamino]-benzenesulfonamide] | 420 | 750 | + | + | 800 | 1600 | % inhibition of growth in parentheses after >25 (MCF-7): (82%); IC90 (MDA-MB-468): 600 nM
7 | 41 | 1040 | 1410 | 1300 | 3100 | 3400 | 6000 |  |  |  |  |  |  |  | Cc1cc([N+](=O)[O-])sc1C(=O)c1sc(Nc2ccc(N3CCN(C)CC3)cc2)nc1N [C(94), {4-Amino-2-[4-(4-methyl-piperazin-1-yl)-phenylamino]-thiazol-5-yl}-(3-methyl-5-nitro-thiophen-2-yl)-methanone] | 2200 | 5000 | + | + |  |  | 
8 | 9 | 607 | 826 | 950 | 2900 | 1800 | 4000 | 390 | 1700 | 1500 | 4200 |  |  |  | Cc1ccsc1C(=O)c1sc(Nc2ccc(N3CCN(C)CC3)cc2)nc1N [C(87), {4-Amino-2-[4-(4-methyl-piperazin-1-yl)-phenylamino]-thiazol-5-yl}-3-methyl-thiophen-2-yl-methanone] | 2000 | 4000 | + | + | 1500 | 2300 | 
9 | 6.3 | 6.8 | 20 | 1400 | 3400 | 4100 | 9500 |  |  |  |  |  |  |  | Nc1nc(Nc2ccc(S(N)(=O)=O)cc2)sc1C(=O)c1sc(Br)cc1Br [C(73), 4-[4-Amino-5-(3,5-dibromo-thiophene-2-carbonyl)-thiazol-2-ylamino]-benzenesulfonamide] | 1300 | 5000 | + | + |  |  | 
10 | 12.3 | 872 | 1240 | 10000 | 20000 | 7900 | 12000 | > 5000 |  | 3800 | > 5000 | 3900 | 16000 | 4700 | CN1CCN(c2ccc(Nc3nc(N)c(C(=O)c4c(Cl)cc(C(F)(F)F)cc4Cl)s3)cc2)CC1 [C(81)] | 13000 | 22000 | + | + | > 5000 |  | IC90 (MDA-MB-468): 9300 nM
